# Reference: US11529343B2, “Compositions and methods for identifying and treating dystonia disorders” (DUKE UNIVERSITY, priority 2015, dated 2022)
# How the values were obtained:
# [1] = tested on: luciferase secretion; experiment: C.Luc. Secretion Assay; assay type: cell-based; conditions: orthogonal assays
# Description: We tested each shRNA for its ability to rescue a previously described defect in luciferase secretion. Chen, P. et al. (2010) Hum. Mol. Genet. 19, 3502-15; Cao, S. et al. (2010) Dis. Model Mech. 3, 386-96; Barrows, N. J., et al., (2010) J. Biomol. Screen. 15, 735-47.) DYT1 patient data were obtained from 4 independent patient-derived lines and WT data (black bar) from 3 normal healthy control lines. Each line was tested in 5 independent experiments that included 4 technical replicates each (with the exception of SCD data from 3 independent experiments).
# (Cao, S. et al. (2010) Dis. Model. Mech. 3, 386-96.) Subsequent testing of additional HIV protease inhibitors supported the activity of this class of compounds and generated favorable structure-activity relationship (SAR) data from which to design improved compounds (Tables 5 and 6). The results with a subset of compounds were also observed in a Luciferase secretion assay (Tables 5 and 6).
# [2] = tested on: ATF4; experiment: Western blot, ATF4 abundance in EGFP-ΔE Torsin1a expression assay cell line; assay type: cell-based, human; conditions: increasing concentration
# Description: (§1) Cells were harvested in RIPA buffer [150 mM NaCl/50 mM NaH2PO4/2 mM EDTA/1% Triton X-100/0.5% SDS/0.5% deoxycholic acid/50 mM NaF/10 mM Na4P2O7/1 mM Na3VO4/1× phosphatase inhibitor cocktail (Sigma #P5726)/1× cOmplete Mini EDTA-free protease inhibitor cocktail (Roche #04693159001)]. Total protein concentrations were assessed by BCA assay (Thermo Fisher Scientific #23225). Proteins were resolved on 4-15% TGX gels (Bio-Rad #5671085), transferred to nitrocellulose membrane, blocked in TBS-T+5% non-fat dry milk, and probed as indicated. (Primary antibodies employed in the examples of the disclosure are presented in Table 4.) ATF4 expression was normalized to […] expression. N=3 independent control cells lines and 4 independent DYT1 cell lines, 3 replicates each.
# (§2) Western blot analyses were conducted to determine the effect of Lopinavir on ATF4, CreP, pEIF2-alpha, and β-actin abundance in EGFP-ΔE Torsin1a expression assay cell lines. […] This down regulation of CreP is in keeping with the HIV protease inhibitor mediated CreP regulation. (See De Gassart et al. PNAS 2015.)
# [3] = tested on: Flp-In T-REx 293 cells inducibly expressing delta-E Torsin1a; experiment: Cytotoxicity (cell count, cellular morphology) in the Torsin1a assay cell line; assay type: cell-based, human
# Description: (§3) In order to test this model directly, the delta-E Torsin1a cell line was treated with compounds targeting the eIF2-alpha signaling pathway (FIG. 2). […] The following day, serial drug dilutions were prepared at 2× final concentration in assay media containing 10 μg/mL tetracycline and 30 μL of the drug/tetracycline mixture was added to the appropriate wells, while control wells received 30 μL of assay media alone or assay media+10 μg/mL tetracycline (final tetracycline concentration for all wells except negative controls: 5 μg/mL). Cells were then incubated at 37° C./5% CO^2 for 48 hours and fixed, permeabilized, Hoechst stained, and imaged as described above. The range of the Torsin1a localization effect was normalized to the percentage of cells with puncta in vehicle-treated delta-E cell line as the maximum and that in WT cell line as the minimum (FIG. 2, panels c-h). Cell count and EGFP-Torsin1a expression were normalized to their respective values in the vehicle-treated delta-E cell line as the maximum. All dose response data are the average of 4 independent experiments per dose. Untreated control data used for normalization are the average of 24 independent experiments.
# Efficacy is calculated as the magnitude of the pathology correction relative to the mutant Torsin1a pathology. For example an efficacy=−100% would be equivalent to the WT TorsinA phenotype, and 0% would be equivalent to the Mutant TorsinA phenotype. CCv2 refers to the dose response Curve Class annotation, and AC refers to Active Concentration.
# [4] = tested on: CreP; experiment: Western blot, CreP abundance in EGFP-ΔE Torsin1a expression assay cell line; assay type: cell-based, human; conditions: increasing concentration
# Description: as §1, §2
# [5] = tested on: delta-E Torsin1a localization; experiment: Delta-E Torsin1a mislocalization assay (% cells with EGFP puncta, high-content imaging); assay type: cell-based, human
# Description: To limit variation in expression levels associated with random integration or transient expression, single copies of either WT or delta-E human TOR1A cDNAs with N-terminal EGFP fusions were inserted at the FRT site in Flp-In™ T-Rex™ 293 cells (Thermo Fisher Scientific #R780-07) via flippase recombinase-mediated cassette exchange according to the manufacturer's recommended protocols.
# The cells were maintained at 37° C./5% CO2. All experiments were performed on cells with fewer than 5 passages.
# Torsin1a expression was also controlled by tetracycline induction to avoid selective pressure modifying the cellular phenotypes. […] The mutant phenotype was measured as the percentage of cells with one or more EGFP puncta using automated high-content imaging analysis (see infra).
# The image analysis algorithm was developed using the Cellomics ArrayScan V CompartmentAnalysisV2 protocol. Hoechst's nuclear staining (Ch1: excitation 350 nm; emission 461 nm) was used for focusing and for cell identification by nuclear size, shape, and intensity. […] Detected cells were gated according to nuclear area, length-to-width ratio, and perimeter-to-area ratio. For the purpose of analysis, cell bodies were defined by a radius of 10 μm from the outer edge of the defined nucleus. Overlapping cells were automatically segmented according to the Cellomics ArrayScanV CompartmentAnalysisV2 object segmentation feature. EGFP fluorescence (Ch2: excitation 488 nm; emission 509 nm) was used for puncta detection. […] Torsin a puncta were identified using the spot detection feature of the Compartmental AnalysisV2 protocol. The percentage of cells containing one or more puncta was used as the primary metric in this assay.
# as §3
# [6] = tested on: pEIF2-alpha; experiment: Western blot, phosphorylation of EIF2-alpha in EGFP-ΔE Torsin1a expression assay cell line; assay type: cell-based, human; conditions: increasing concentration
# Description: as §1, §2
structure (smiles),measurement,setting,value
Cc1cccc(C)c1OCC(=O)N[C@@H](Cc1ccccc1)[C@@H](O)C[C@H](Cc1ccccc1)NC(=O)[C@H](C(C)C)N1CCCNC1=O [Lopinavir],"effect on secretory deficits, in words",[1],corrected secretory deficits
same,ATF4 abundance,[2],increases phosphorylation of EIF2-alpha and ATF4 abundance in a dose dependent manner
same,Cytotox Efficacy,[3],−69.87%
same,Cytotox Max Resp,[3],−55.19%
same,Cytotox CC-v2 (dose response Curve Class),[3]; curve class per Inglese et al. 2006,−3
same,steady state levels of CreP,[4],down-regulation of steady state levels
same,steady state levels of CreP,[4]; listed as lopinavir,decreases CReP abundance
same,Emax,"[5]; Homo sapiens, delta-E Torsin1a assay cell line, read-out: ΔE TorsinA Mislocalization Assay Localization Max Efficacy",70%
same,"effect on delta-E Torsin1a localization (cells with puncta), in words","[5]; dose response, delta-E cell line",corrected TorsinA localization in a dose-dependent fashion
same,phosphorylation of EIF2-alpha,[6],increases phosphorylation of EIF2-alpha
